{
  "source": "patent US20060281813A1",
  "about": "“Methods of treating hyperproliferative cell disorders” (priority 2003, published 2006)",
  "key": {"[1]": {"tested_on": "lung cancer", "assay": "Example 6: patients with lung cancer", "type": "in vivo, human", "details": "oral 100 mg/square meter with oral IRESSA"}, "[2]": {"tested_on": "lung cancer", "assay": "Example 7: lung cancer patients with disease progression on IRESSA alone", "type": "in vivo, human", "details": "added to IRESSA, oral 100 mg/square meter, optionally calcitriol 0.1-1 mcg per day"}, "[3]": {"target": "T1, RARγ (Mus musculus, UniProt P18911)", "T1 sequence (P18911 1-458)": "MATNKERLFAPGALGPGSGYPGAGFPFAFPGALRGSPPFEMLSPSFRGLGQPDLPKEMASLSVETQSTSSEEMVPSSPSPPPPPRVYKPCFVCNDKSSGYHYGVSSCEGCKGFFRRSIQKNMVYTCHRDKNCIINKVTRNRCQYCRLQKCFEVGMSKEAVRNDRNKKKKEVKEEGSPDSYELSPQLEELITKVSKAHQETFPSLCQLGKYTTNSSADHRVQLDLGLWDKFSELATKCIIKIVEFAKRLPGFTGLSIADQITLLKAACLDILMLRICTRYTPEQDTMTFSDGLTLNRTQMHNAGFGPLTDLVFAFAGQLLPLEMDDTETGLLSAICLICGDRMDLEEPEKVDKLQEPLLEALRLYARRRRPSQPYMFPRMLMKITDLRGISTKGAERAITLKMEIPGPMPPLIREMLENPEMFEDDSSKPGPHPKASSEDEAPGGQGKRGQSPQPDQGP", "details": "read-out: IC50, ability to displace all-trans RA; cited from earlier work"}, "[4]": {"target": "T2, human RARα (Homo sapiens, UniProt P10276)", "T2 sequence (P10276 1-462)": "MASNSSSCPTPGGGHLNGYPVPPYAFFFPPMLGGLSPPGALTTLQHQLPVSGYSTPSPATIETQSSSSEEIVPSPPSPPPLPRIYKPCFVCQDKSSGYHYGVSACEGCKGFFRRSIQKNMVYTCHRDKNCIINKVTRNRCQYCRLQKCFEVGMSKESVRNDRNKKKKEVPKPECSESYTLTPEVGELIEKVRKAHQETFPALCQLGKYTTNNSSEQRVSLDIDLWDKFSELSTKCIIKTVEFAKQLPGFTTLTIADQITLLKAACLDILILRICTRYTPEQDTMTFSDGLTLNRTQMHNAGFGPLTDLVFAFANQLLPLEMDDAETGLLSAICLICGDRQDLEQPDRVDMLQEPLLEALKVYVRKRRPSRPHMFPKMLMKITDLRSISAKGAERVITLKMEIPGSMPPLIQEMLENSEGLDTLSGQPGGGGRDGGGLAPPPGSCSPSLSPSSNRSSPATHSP", "details": "cited from earlier work"}, "[5]": {"tested_on": "Xenopus laevis", "details": "Xenopus laevis system; cited from earlier work"}},
  "data": [
    {"molecule": "CC(C=CC1=C(C)C(=O)CCC1(C)C)=CC=CC(C)=CCO", "note": "[4-oxo-retinol]", "values": [
      {"measurement": "tumor burden versus IRESSA alone", "setting": "[1]", "result": "reduced tumor burden"},
      {"measurement": "tumor burden", "setting": "[2]", "result": "reduced tumor burden"},
      {"measurement": "IC50", "setting": "[3]", "result": 3.2, "unit": "µM"},
      {"measurement": "RARα-mediated transactivation", "setting": "[4]", "result": "potently induced transactivation"},
      {"measurement": "ED50, teratogenicity", "setting": "[5]", "result": "0.3 to 0.4", "unit": "µM"}
    ]}
  ]
}
